Results taken from the supplement of paper PMC11061612.

What was measured:
[1] = tested on: HuH-7 (Hepatocellular Carcinoma); assay: Bliss excess, mean over the matrix (fraction); higher = more synergy
Procedure, shortened: (§1)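 Cell lines in DMEM/F12 or RPMI with 10% FBS were plated in 1536-well plates, held 24 hours at 37°C, 5% CO2, then given two-drug dose matrices for 72 hours (DMSO typically 0.2%). Viability was read by CellTiter-Glo 2.0 luminescence and scaled as inhibition from 0 (vehicle wells) to 1 (blank wells). Combination Emax is the second-highest inhibition in the matrix; Bliss excess is observed combination effect minus expected EA + EB − EA·EB, EA and EB being single-agent effects.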

BE2-M17 (Neuroblastoma) [2] = assay: as above
Procedure, shortened: as §1

[3] = tested on: OV-56 (Ovarian Carcinoma); assay: as above
Procedure, shortened: as §1

[4] = tested on: BFTC-909 (Kidney Carcinoma); assay: as above
Procedure, shortened: as §1

[5] = tested on: HeLa (Cervical Carcinoma); assay: as above
Procedure, shortened: as §1

[6] = tested on: FTC-133 (Thyroid Gland Carcinoma); assay: as above
Procedure, shortened: as §1

NCI-H2052 (Mesothelioma) [7] = assay: as above
Procedure, shortened: as §1

[8] = tested on: LCLC-97TM1 (Non-Small Cell Lung Carcinoma); assay: as above
Procedure, shortened: as §1

[9] = tested on: Hs-746T (Gastric Carcinoma); assay: as above
Procedure, shortened: as §1

[10] = tested on: NCI-H1568 (Lung Adenocarcinoma); assay: as above
Procedure, shortened: as §1

[11] = tested on: CAL-33 (Oral Cavity Carcinoma); assay: as above
Procedure, shortened: as §1

[12] = tested on: L-428 (Hodgkin's Lymphoma); assay: as above
Procedure, shortened: as §1

[13] = tested on: Detroit562 (Head and Neck Carcinoma); assay: as above
Procedure, shortened: as §1

BPH-1 (Non-Cancerous) [14] = assay: as above
Procedure, shortened: as §1

[15] = tested on: NUGC-4 (Gastric Carcinoma); assay: as above
Procedure, shortened: as §1

[16] = tested on: KMRC-20 (Kidney Carcinoma); assay: as above
Procedure, shortened: as §1

[17] = tested on: SW1573 (Lung Adenocarcinoma); assay: as above
Procedure, shortened: as §1

[18] = tested on: NCI-H209 (Small Cell Lung Carcinoma); assay: as above
Procedure, shortened: as §1

NCI-H2722 (Mesothelioma) [19] = assay: as above
Procedure, shortened: as §1

[20] = tested on: ALL-PO (B-Lymphoblastic Leukemia); assay: as above
Procedure, shortened: as §1

[21] = tested on: MHH-CALL-2 (B-Lymphoblastic Leukemia); assay: as above
Procedure, shortened: as §1

[22] = tested on: OE21 (Esophageal Squamous Cell Carcinoma); assay: as above
Procedure, shortened: as §1

[23] = tested on: HuH-7 (Hepatocellular Carcinoma); assay: combination Emax (second highest fraction inhibited in the dose matrix, 72 h); higher = more inhibition; extreme values may be limits of the assay
Procedure, shortened: as §1

BE2-M17 (Neuroblastoma) [24] = assay: as above
Procedure, shortened: as §1

[25] = tested on: OV-56 (Ovarian Carcinoma); assay: as above
Procedure, shortened: as §1

[26] = tested on: BFTC-909 (Kidney Carcinoma); assay: as above
Procedure, shortened: as §1

[27] = tested on: HeLa (Cervical Carcinoma); assay: as above
Procedure, shortened: as §1

[28] = tested on: FTC-133 (Thyroid Gland Carcinoma); assay: as above
Procedure, shortened: as §1

NCI-H2052 (Mesothelioma) [29] = assay: as above
Procedure, shortened: as §1

[30] = tested on: LCLC-97TM1 (Non-Small Cell Lung Carcinoma); assay: as above
Procedure, shortened: as §1

[31] = tested on: Hs-746T (Gastric Carcinoma); assay: as above
Procedure, shortened: as §1

[32] = tested on: NCI-H1568 (Lung Adenocarcinoma); assay: as above
Procedure, shortened: as §1

[33] = tested on: CAL-33 (Oral Cavity Carcinoma); assay: as above
Procedure, shortened: as §1

[34] = tested on: L-428 (Hodgkin's Lymphoma); assay: as above
Procedure, shortened: as §1

[35] = tested on: Detroit562 (Head and Neck Carcinoma); assay: as above
Procedure, shortened: as §1

BPH-1 (Non-Cancerous) [36] = assay: as above
Procedure, shortened: as §1

[37] = tested on: NUGC-4 (Gastric Carcinoma); assay: as above
Procedure, shortened: as §1

[38] = tested on: KMRC-20 (Kidney Carcinoma); assay: as above
Procedure, shortened: as §1

[39] = tested on: SW1573 (Lung Adenocarcinoma); assay: as above
Procedure, shortened: as §1

[40] = tested on: NCI-H209 (Small Cell Lung Carcinoma); assay: as above
Procedure, shortened: as §1

NCI-H2722 (Mesothelioma) [41] = assay: as above
Procedure, shortened: as §1

[42] = tested on: ALL-PO (B-Lymphoblastic Leukemia); assay: as above
Procedure, shortened: as §1

[43] = tested on: MHH-CALL-2 (B-Lymphoblastic Leukemia); assay: as above
Procedure, shortened: as §1

[44] = tested on: OE21 (Esophageal Squamous Cell Carcinoma); assay: as above
Procedure, shortened: as §1
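For Bliss excess, mean over the matrix in this document: after 72 h of two-drug dosing.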

CC(=O)c1c(C)c2cnc(Nc3ccc(N4CCNCC4)cn3)nc2n(C2CCCC2)c1=O [Palbociclib] + CN(CC[C@H](CSC1=CC=CC=C1)NC2=C(C=C(C=C2)S(=O)(=O)NC(=O)C3=CC=C(C=C3)N4CCC(CC4)[C@H](C5=CC=CC=C5C6=CC=C(C=C6)Cl)O)S(=O)(=O)C(F)(F)F)CCO [AZD4320] (first compound max 10 µM, 7x7, partner max 1 µM)
Bliss excess [1]: -0.0254
Bliss excess (BE2-M17 (Neuroblastoma) [2]): 0.0726
Bliss excess [3]: -0.062
Bliss excess [4]: -0.0576
Bliss excess [5]: -0.0385
Bliss excess [6]: -0.0778
Bliss excess (NCI-H2052 (Mesothelioma) [7]): -0.0159
Bliss excess [8]: -0.0326
Bliss excess [9]: -0.0386
Bliss excess [10]: -0.0747
Bliss excess [11]: -0.0398
Bliss excess [12]: -0.0128
Bliss excess [13]: 0.0001
Bliss excess (BPH-1 (Non-Cancerous) [14]): -0.0818
Bliss excess [15]: -0.0067
Bliss excess [16]: -0.0504
Bliss excess [17]: -0.0486
Bliss excess [18]: 0.0266
Bliss excess (NCI-H2722 (Mesothelioma) [19]): -0.0497
Bliss excess [20]: 0.0126
Bliss excess [21]: -0.0428
Bliss excess [22]: 0.0269
combination Emax [23]: 0.309
combination Emax (BE2-M17 (Neuroblastoma) [24]): 0.756
combination Emax [25]: 0.289
combination Emax [26]: 0.55
combination Emax [27]: 0.117
combination Emax [28]: 0.582
combination Emax (NCI-H2052 (Mesothelioma) [29]): 0.296
combination Emax [30]: 0.252
combination Emax [31]: 0.408
combination Emax [32]: 0.515
combination Emax [33]: 0.364
combination Emax [34]: 0.866
combination Emax [35]: 0.633
combination Emax (BPH-1 (Non-Cancerous) [36]): 0.592
combination Emax [37]: 0.411
combination Emax [38]: 0.25
combination Emax [39]: 0.255
combination Emax [40]: 1
combination Emax (NCI-H2722 (Mesothelioma) [41]): 0.283
combination Emax [42]: 1
combination Emax [43]: 0.436
combination Emax [44]: 0.663
